The results in this text go back to US9156796B2, “Benzoimidazole-carboxylic acid amide derivatives as APJ receptor modulators” (SANOFI, priority 2013, dated 2015).

In one assay the target is T1, human apelin receptor (Homo sapiens, UniProt P35414).
T1 construct: expressed in transfected cells
T1 sequence (P35414 1-380): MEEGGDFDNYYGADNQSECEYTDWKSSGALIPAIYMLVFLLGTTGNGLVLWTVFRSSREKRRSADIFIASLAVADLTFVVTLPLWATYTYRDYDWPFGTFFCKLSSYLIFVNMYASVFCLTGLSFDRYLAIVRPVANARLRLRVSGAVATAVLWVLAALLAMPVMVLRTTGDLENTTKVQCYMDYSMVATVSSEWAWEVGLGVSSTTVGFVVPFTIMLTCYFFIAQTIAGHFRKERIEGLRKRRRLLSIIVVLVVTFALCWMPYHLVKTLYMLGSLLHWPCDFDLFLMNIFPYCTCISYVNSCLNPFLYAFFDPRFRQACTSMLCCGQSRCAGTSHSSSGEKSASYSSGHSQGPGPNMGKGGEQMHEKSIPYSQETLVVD
Nature of the assay: Determination of agonism on the human apelin receptor by a calcium fluorescence assay (FLIPR). Format: cell-based. Particulars: EC50 (APJ agonism), HEK293 cells stably transfected with human apelin receptor and Giaq protein, Fluo-4 calcium fluorescence. Put shortly:
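HEK293 cells stably co-expressing human apelin receptor and promiscuous Giaq, loaded 1 h at 37 °C with Fluo-4 (4 μM) in probenecid-containing Hepes buffer, pH 7.4. Compounds, at least 7 concentrations in triplicate, added in FLIPR Tetra; peak calcium fluorescence normalized to 1 μM apelin-13 as 100% to derive EC50.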
For the molecule `CCCC[C@H](CO)NC(=O)c1ccc2c(c1)nc(CC1CCCC1)n2C(CC)CC` [Example 183, 2-Cyclopentylmethyl-1-(1-ethyl-propyl)-1H-benzoimidazole-5-carboxylic acid ((R)-1-hydroxymethyl-pentyl)-amide], the EC50 – broadly, the concentration giving half of the maximal effect – was 26300 nM.

Still in this assay, the particulars now being: HEK293 cells stably transfected with human apelin receptor and Giaq protein, Fluo-4 calcium fluorescence, read-out: EC50 (APJ agonism).
With `CCCC(CC(=O)O)NC(=O)c1ccc2c(c1)nc(Cc1cccs1)n2C(CC)CC` (centres unmarked) [Example 155, 3-{[1-(1-Ethyl-propyl)-2-thiophen-2-ylmethyl-1H-benzoimidazole-5-carbonyl]-amino}-hexanoic acid], the EC50 turned out to be 500 nM.

For `CC(C)C[C@H](NC(=O)c1ccc2c(c1)nc(Cc1cccs1)n2C1CCCCC1C)C(=O)O` (single isomer, unassigned) [Example 412], the EC50 was found to be 106 nM.

As for `CC(C)C[C@H](NC(=O)c1ccc2c(c1)nc(Cc1cccs1)n2C1CCCC1C)C(=O)O` (single isomer, unassigned) [Example 428], the EC50 stood at 266 nM.

For the molecule `CCC(CC)n1c(Cc2ccc(C)s2)nc2cc(C(=O)N[C@@H](CC(C)C)C(=O)O)ccc21` [Example 119, (S)-2-{[1-(1-Ethyl-propyl)-2-(5-methyl-thiophen-2-ylmethyl)-1H-benzoimidazole-5-carbonyl]-amino}-4-methyl-pentanoic acid], the EC50 amounted to 33100 nM.

Regarding `CCCN(CCC)C1CCN(C(=O)[C@H](CC(C)C)NC(=O)c2ccc3c(c2)nc(Cc2cccs2)n3C(CC)CC)CC1` [Example 284, 1-(1-Ethyl-propyl)-2-thiophen-2-ylmethyl-1H-benzoimidazole-5-carboxylic acid [(S)-1-(4-dipropylamino-piperidine-1-carbonyl)-3-methyl-butyl]-amide], the EC50 is 252 nM.

Regarding `CCC(CC)n1c(Cc2cccs2)nc2cc(C(=O)N[C@@H](CC(C)C)C(=O)NCc3cccc(OC)c3)ccc21` [Example 364, 1-(1-Ethyl-propyl)-2-thiophen-2-ylmethyl-1H-benzoimidazole-5-carboxylic acid [(S)-1-(3-methoxy-benzylcarbamoyl)-3-methyl-butyl]-amide], the half-maximal effective concentration (EC50) was 13500 nM.

Take `CCC(CC)n1c(Cc2cccs2)nc2cc(C(=O)N[C@@H](CC(C)C)C(=O)NCCCN3CC(C)OC(C)C3)ccc21` (stereo partly drawn) [Example 294, 1-(1-Ethyl-propyl)-2-thiophen-2-ylmethyl-1H-benzoimidazole-5-carboxylic acid {(S)-1-[3-(2,6-dimethyl-morpholin-4-yl)-propylcarbamoyl]-3-methyl-butyl}-amide]: the EC50 worked out at 722 nM.

For the molecule `CCCC[C@H](NC(=O)c1ccc2c(c1)nc(Cc1cccs1)n2C1CCCCC1C)C(=O)O` (stereo partly drawn) [Example 16, (S)-2-{[1-(2-Methyl-cyclohexyl)-2-thiophen-2-ylmethyl-1H-benzoimidazole-5-carbonyl]-amino}-hexanoic acid], the concentration giving a half-maximal response (EC50) worked out at 117 nM.

On to `CCC(CC)n1c(Cc2cccs2)nc2cc(C(=O)NC(CC3CCC(C)CC3)C(=O)O)ccc21` (centres unmarked) [Example 36, 2-{[1-(1-Ethyl-propyl)-2-thiophen-2-ylmethyl-1H-benzoimidazole-5-carbonyl]-amino}-3-(4-methyl-cyclohexyl)-propionic acid], for which the EC50 was 1260 nM.

On to `CC(C)C[C@H](NC(=O)c1ccc2c(c1)nc(Cc1ccco1)n2C1CCCCC1C)C(=O)O` (single isomer, unassigned) [Example 416], for which the EC50 was 25 nM.

Consider `CCC(CC)n1c(CC2CCCC2)nc2cc(C(=O)NC(CC(C)C)C(N)=O)ccc21` (centres unmarked) [Example 169, 2-Cyclopentylmethyl-1-(1-ethyl-propyl)-1H-benzoimidazole-5-carboxylic acid (1-carbamoyl-3-methyl-butyl)-amide], for which the EC50 was determined as 6650 nM.

`CCC(CC)n1c(Cc2cccs2)nc2cc(C(=O)NC3(C(=O)O)CCC(C)CC3)ccc21` (centres unmarked) [Example 34, 1-{[1-(1-Ethyl-propyl)-2-thiophen-2-ylmethyl-1H-benzoimidazole-5-carbonyl]-amino}-4-methyl-cyclohexanecarboxylic acid]: the EC50 was 489 nM.

Consider `CCC(CC)n1c(Cc2cccs2)nc2cc(C(=O)N[C@@H](CC3CCCCC3)C(N)=O)ccc21` [Example 173, 1-(1-Ethyl-propyl)-2-thiophen-2-ylmethyl-1H-benzoimidazole-5-carboxylic acid ((S)-1-carbamoyl-2-cyclohexyl-ethyl)-amide], for which the EC50 is 6700 nM.

For `CCC(CC)n1c(Cc2cccs2)nc2cc(C(=O)N[C@H](CO)[C@@H](C)CC)ccc21` [Example 194, 1-(1-Ethyl-propyl)-2-thiophen-2-ylmethyl-1H-benzoimidazole-5-carboxylic acid ((1S,2S)-1-hydroxymethyl-2-methyl-butyl)-amide], the EC50 came to 960 nM.

As for `CCC(CC)n1c(Cc2cccs2)nc2cc(C(=O)N[C@@H](CC(C)C)C(=O)NCC3CCN(CCc4ccccc4)C3)ccc21` (stereo partly drawn) [Example 291, 1-(1-Ethyl-propyl)-2-thiophen-2-ylmethyl-1H-benzoimidazole-5-carboxylic acid {(S)-3-methyl-1-[(1-phenethyl-pyrrolidin-3-ylmethyl)-carbamoyl]-butyl}-amide], the EC50 was 408 nM.

With `CCC(CC)n1c(Cc2cccs2)nc2cc(C(=O)N[C@@H](CC(C)C)C(=O)N3CCC(N4CCC(C)CC4)C3)ccc21` (stereo partly drawn) [Example 300, 1-(1-Ethyl-propyl)-2-thiophen-2-ylmethyl-1H-benzoimidazole-5-carboxylic acid {(S)-3-methyl-1-[3-(4-methyl-piperidin-1-yl)-pyrrolidine-1-carbonyl]-butyl}-amide], the EC50 came out at 732 nM.

Turning to `CCC(CC)n1c(Cc2cccs2)nc2cc(C(=O)N[C@@H](CC(C)C)C(=O)NCCc3cccs3)ccc21` [Example 223, 1-(1-Ethyl-propyl)-2-thiophen-2-ylmethyl-1H-benzoimidazole-5-carboxylic acid [(S)-3-methyl-1-(2-thiophen-2-yl-ethylcarbamoyl)-butyl]-amide], the EC50 came out at 6960 nM.

Take `CCC(CC)n1c(Cc2cccs2)nc2cc(C(=O)N[C@@H](CC(C)C)C(=O)N(C)CC3CCCO3)ccc21` (stereo partly drawn) [Example 387, 1-(1-Ethyl-propyl)-2-thiophen-2-ylmethyl-1H-benzoimidazole-5-carboxylic acid {(S)-3-methyl-1-[methyl-(tetrahydro-furan-2-ylmethyl)-carbamoyl]-butyl}-amide]: the concentration for a half-maximal effect (EC50) was found to be 1140 nM.

On to `CCC(CC)n1c(Cc2cccs2)nc2cc(C(=O)NC(CC(C)C)C(C)(C)C(=O)O)ccc21` (single isomer, unassigned) [Example 464], for which the concentration giving a half-maximal response (EC50) came out at 126 nM.

Consider `CCC(CC)n1c(Cc2cccs2)nc2cc(C(=O)N[C@@H](CC(C)C)C(=O)NCCc3ccc(OC)cc3)ccc21` [Example 361, 1-(1-Ethyl-propyl)-2-thiophen-2-ylmethyl-1H-benzoimidazole-5-carboxylic acid {(S)-1-[2-(4-methoxy-phenyl)-ethylcarbamoyl]-3-methyl-butyl}-amide], for which the EC50 is 25000 nM.

As to `CCC(CC)n1c(Cc2cccs2)nc2cc(C(=O)NC(C)(CC(C)C)C(=O)O)ccc21` (single isomer, unassigned) [Example 441], the EC50 stood at 1520 nM.

On to `CCC(CC)n1c(Cc2cccs2)nc2cc(C(=O)N[C@@H](CC(C)C)C(=O)NCCC3CCOCC3)ccc21` [Example 382, 1-(1-Ethyl-propyl)-2-thiophen-2-ylmethyl-1H-benzoimidazole-5-carboxylic acid {(S)-3-methyl-1-[2-(tetrahydro-pyran-4-yl)-ethylcarbamoyl]-butyl}-amide], for which the EC50 was 3560 nM.
